Legend:
Assay in all cases: cells
Conditions in all cases: Homo sapiens
IST-MEL1 = assay type: functional, cell-based;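 also: growth inhibition of the cell line, read out with a cell viability assay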
Description: SANGER: Inhibition of human IST-MEL1 cell growth in a cell viability assay.

KS-1 = assay type: functional, cell-based;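 also: growth inhibition of KS-1 cells, read out with a cell viability assay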
Description: SANGER: Inhibition of human KS-1 cell growth in a cell viability assay.

ACN = assay type: functional, cell-based;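 also: growth inhibition of the human ACN cell line, read out via cell viability testing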
Description: SANGER: Inhibition of human ACN cell growth in a cell viability assay.

NB69 = assay type: functional, cell-based;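 also: growth inhibition of NB69 cells, determined by a cell viability assay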
Description: SANGER: Inhibition of human NB69 cell growth in a cell viability assay.

NCI-H2126 = assay type: functional, cell-based;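 also: growth inhibition of the cancer cell line, determined with a cell viability readout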
Description: SANGER: Inhibition of human NCI-H2126 cell growth in a cell viability assay.

Ramos-2G6-4C10 = assay type: functional, cell-based;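 also: growth inhibition of the cell line, measured by a cell viability read-out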
Description: SANGER: Inhibition of human Ramos-2G6-4C10 cell growth in a cell viability assay.

KG-1 = assay type: functional, cell-based;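 also: growth inhibition of KG-1 cells, read out by a cell viability assay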
Description: SANGER: Inhibition of human KG-1 cell growth in a cell viability assay.

NCI-H23 = assay type: functional, cell-based;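 also: cell viability assay measuring growth inhibition of NCI-H23 cells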
Description: SANGER: Inhibition of human NCI-H23 cell growth in a cell viability assay.

NOS-1 = assay type: functional, cell-based;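 also: growth inhibition of the human NOS-1 cell line, read out with a cell viability assay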
Description: SANGER: Inhibition of human NOS-1 cell growth in a cell viability assay.

MMAC-SF = assay type: functional, cell-based;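 also: growth inhibition of human MMAC-SF cells, read out with a cell viability assay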
Description: SANGER: Inhibition of human MMAC-SF cell growth in a cell viability assay.

MZ2-MEL = assay type: functional, cell-based;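 also: growth inhibition of MZ2-MEL cells read out with a cell viability assay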
Description: SANGER: Inhibition of human MZ2-MEL cell growth in a cell viability assay.

NB6 = assay type: functional, cell-based
Description: SANGER: Inhibition of human NB6 cell growth in a cell viability assay.

IST-SL1 = assay type: functional, cell-based;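 also: growth inhibition of human IST-SL1 cells, read out with a cell viability assay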
Description: SANGER: Inhibition of human IST-SL1 cell growth in a cell viability assay.

COLO-829 = assay type: functional, cell-based
Description: SANGER: Inhibition of human COLO-829 cell growth in a cell viability assay.

RCC10RGB = assay type: functional, cell-based;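 also: growth inhibition of human RCC10RGB cells, read out by a cell viability assay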
Description: SANGER: Inhibition of human RCC10RGB cell growth in a cell viability assay.

NCI-H510A = assay type: functional, cell-based;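 also: growth inhibition of NCI-H510A cells, read out with a cell viability assay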
Description: SANGER: Inhibition of human NCI-H510A cell growth in a cell viability assay.

NH-12 = assay type: functional, cell-based;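 also: growth inhibition of NH-12 cells, read out with a cell viability assay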
Description: SANGER: Inhibition of human NH-12 cell growth in a cell viability assay.

8-MG-BA = assay type: functional, cell-based;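 also: growth inhibition of 8-MG-BA cells, read out with a cell viability assay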
Description: SANGER: Inhibition of human 8-MG-BA cell growth in a cell viability assay.

KU812 cell line = assay type: functional, cell-based;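 also: growth inhibition of KU812 cells, read out with a cell viability assay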
Description: SANGER: Inhibition of human KU812 cell growth in a cell viability assay.

NKM-1 = assay type: functional, cell-based;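 also: growth inhibition of NKM-1 cells, read out with a cell viability assay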
Description: SANGER: Inhibition of human NKM-1 cell growth in a cell viability assay.

697 = assay type: functional, cell-based
Description: SANGER: Inhibition of human 697 cell growth in a cell viability assay.

P30-OHK = assay type: functional, cell-based;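 also: growth inhibition of the P30-OHK cell line, read out with a cell viability assay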
Description: SANGER: Inhibition of human P30-OHK cell growth in a cell viability assay.

SCH = assay type: functional, cell-based;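 also: growth inhibition of human SCH cells, read out in a cell viability assay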
Description: SANGER: Inhibition of human SCH cell growth in a cell viability assay.

GOTO = assay type: functional, cell-based;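 also: growth inhibition of GOTO cells, read out by a cell viability assay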
Description: SANGER: Inhibition of human GOTO cell growth in a cell viability assay.

BE-13 = assay type: functional, cell-based;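 also: growth inhibition of human BE-13 cells, measured with a cell viability assay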
Description: SANGER: Inhibition of human BE-13 cell growth in a cell viability assay.

ES7 = assay type: functional, cell-based;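 also: growth inhibition of cultured human ES7 cells, read out as cell viability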
Description: SANGER: Inhibition of human ES7 cell growth in a cell viability assay.

SH-4 = assay type: functional, cell-based;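 also: growth inhibition of SH-4 cells, read out with a cell viability assay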
Description: SANGER: Inhibition of human SH-4 cell growth in a cell viability assay.

MS-1 = assay type: functional, cell-based;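 also: growth inhibition of MS-1 cells, read out by cell viability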
Description: SANGER: Inhibition of human MS-1 cell growth in a cell viability assay.

LB771-HNC = assay type: functional, cell-based;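 also: growth inhibition of LB771-HNC human cells, read out with a cell viability assay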
Description: SANGER: Inhibition of human LB771-HNC cell growth in a cell viability assay.

SW684 = assay type: functional, cell-based;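 also: growth inhibition of human SW684 cells, measured by a cell viability assay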
Description: SANGER: Inhibition of human SW684 cell growth in a cell viability assay.

K562 = assay type: functional, cell-based
Description: SANGER: Inhibition of human K-562 cell growth in a cell viability assay.

GCIY = assay type: functional, cell-based;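 also: growth inhibition of the human GCIY cell line, read out by a cell viability assay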
Description: SANGER: Inhibition of human GCIY cell growth in a cell viability assay.

U-87 MG = assay type: functional, cell-based, U-87MG ATCC;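 also: growth inhibition of the cells measured with a viability assay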
Description: SANGER: Inhibition of human U-87-MG cell growth in a cell viability assay.

MHH-NB-11 = assay type: functional, cell-based;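 also: growth inhibition of human MHH-NB-11 cells, read out by a cell viability assay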
Description: SANGER: Inhibition of human MHH-NB-11 cell growth in a cell viability assay.

NCI-H1092 = assay type: functional, cell-based;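 also: cell growth inhibition measured with a cell viability assay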
Description: SANGER: Inhibition of human NCI-H1092 cell growth in a cell viability assay.

TE-5 = assay type: functional, cell-based;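 also: inhibition of cell growth, read out by a cell viability assay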
Description: SANGER: Inhibition of human TE-5 cell growth in a cell viability assay.

HCE-4 = assay type: functional, cell-based;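 also: cell viability assay measuring inhibition of growth in the human HCE-4 cell line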
Description: SANGER: Inhibition of human HCE-4 cell growth in a cell viability assay.

NCI-H209 = assay type: functional, cell-based;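 also: growth inhibition of human NCI-H209 cells, measured by a cell viability assay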
Description: SANGER: Inhibition of human NCI-H209 cell growth in a cell viability assay.

DJM-1 = assay type: functional, cell-based;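 also: growth inhibition of human DJM-1 cells, read out by a cell viability assay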
Description: SANGER: Inhibition of human DJM-1 cell growth in a cell viability assay.

RPMI-8226 = assay type: functional, cell-based
Description: SANGER: Inhibition of human RPMI-8226 cell growth in a cell viability assay.

PSN1 = assay type: functional, cell-based;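 also: suppression of growth of human PSN1 cells, read out by a cell viability assay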
Description: SANGER: Inhibition of human PSN1 cell growth in a cell viability assay.

SCC-15 = assay type: functional, cell-based;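 also: growth inhibition of SCC-15 cells, read out with a cell viability assay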
Description: SANGER: Inhibition of human SCC-15 cell growth in a cell viability assay.

KP-N-YS = assay type: functional, cell-based;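 also: cell viability assay measuring inhibition of cell line growth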
Description: SANGER: Inhibition of human KP-N-YS cell growth in a cell viability assay.

NCI-H526 = assay type: functional, cell-based;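 also: growth inhibition of the human NCI-H526 cell line, measured by a cell viability assay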
Description: SANGER: Inhibition of human NCI-H526 cell growth in a cell viability assay.

JVM-3 = assay type: functional, cell-based;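 also: growth inhibition of human JVM-3 cells, read out with a cell viability assay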
Description: SANGER: Inhibition of human JVM-3 cell growth in a cell viability assay.

EW-18 = assay type: functional, cell-based;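 also: growth inhibition of EW-18 cells, read out by a cell viability assay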
Description: SANGER: Inhibition of human EW-18 cell growth in a cell viability assay.

TE-1 = assay type: functional, cell-based;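 also: growth inhibition of the human TE-1 cell line, read out with a cell viability assay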
Description: SANGER: Inhibition of human TE-1 cell growth in a cell viability assay.

SK-MEL-2 = assay type: functional, cell-based;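 also: growth inhibition of human SK-MEL-2 cells measured with a cell viability assay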
Description: SANGER: Inhibition of human SK-MEL-2 cell growth in a cell viability assay.

SW872 = assay type: functional, cell-based;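 also: growth inhibition of SW872 cells, read out by a viability assay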
Description: SANGER: Inhibition of human SW872 cell growth in a cell viability assay.

BV-173 = assay type: functional, cell-based
Description: SANGER: Inhibition of human BV-173 cell growth in a cell viability assay.

KM-H2 = assay type: functional, cell-based;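 also: growth inhibition of KM-H2 cells, read out by a cell viability assay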
Description: SANGER: Inhibition of human KM-H2 cell growth in a cell viability assay.

BB65-RCC = assay type: functional, cell-based;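 also: growth inhibition of the cell line, measured with a cell viability assay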
Description: SANGER: Inhibition of human BB65-RCC cell growth in a cell viability assay.

D-263MG = assay type: functional, cell-based
Description: SANGER: Inhibition of human D-263MG cell growth in a cell viability assay.

LB831-BLC = assay type: functional, cell-based;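 also: growth inhibition of LB831-BLC cells, read out with a cell viability assay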
Description: SANGER: Inhibition of human LB831-BLC cell growth in a cell viability assay.

SW982 = assay type: functional, cell-based;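 also: growth inhibition of SW982 cells, read out with a cell viability assay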
Description: SANGER: Inhibition of human SW982 cell growth in a cell viability assay.

KLE = assay type: functional, cell-based;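 also: growth inhibition of human KLE cells, read out with a cell viability assay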
Description: SANGER: Inhibition of human KLE cell growth in a cell viability assay.

COLO-684 = assay type: functional, cell-based
Description: SANGER: Inhibition of human COLO-684 cell growth in a cell viability assay.

SK-NEP-1 = assay type: functional, cell-based;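 also: growth inhibition of human SK-NEP-1 cells, read out by a cell viability assay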
Description: SANGER: Inhibition of human SK-NEP-1 cell growth in a cell viability assay.

LS-411N = assay type: functional, cell-based
MOLT-16 = assay type: functional, cell-based
Description: SANGER: Inhibition of human MOLT-16 cell growth in a cell viability assay.

NCI-H1155 = assay type: functional, cell-based
Description: SANGER: Inhibition of human NCI-H1155 cell growth in a cell viability assay.

LXF-289 cell line = assay type: functional, cell-based
Description: SANGER: Inhibition of human LXF-289 cell growth in a cell viability assay.

HAL-01 = assay type: functional, cell-based
Description: SANGER: Inhibition of human HAL-01 cell growth in a cell viability assay.

EKVX = assay type: functional, cell-based
Description: SANGER: Inhibition of human EKVX cell growth in a cell viability assay.

NCI-H1838 = assay type: functional, cell-based
Description: SANGER: Inhibition of human NCI-H1838 cell growth in a cell viability assay.

HT = assay type: functional, cell-based
Description: SANGER: Inhibition of human HT cell growth in a cell viability assay.

Cc1nc(Nc2ncc(C(=O)Nc3c(C)cccc3Cl)s2)cc(N2CCN(CCO)CC2)n1 [DASATINIB]
IC50 (IST-MEL1): 0.135 µM | IC50 (KS-1): 0.0273 µM | IC50 (ACN): > 1.28 µM | IC50 (NB69): 0.144 µM | IC50 (NCI-H2126): > 1.28 µM | IC50 (Ramos-2G6-4C10): > 1.28 µM | IC50 (KG-1): > 1.28 µM | IC50 (NCI-H23): > 1.28 µM | IC50 (NOS-1): 0.00613 µM | IC50 (MMAC-SF): > 1.28 µM | IC50 (MZ2-MEL): 0.285 µM | IC50 (NB6): > 1.28 µM | IC50 (IST-SL1): > 1.28 µM | IC50 (COLO-829): 0.122 µM | IC50 (RCC10RGB): 0.491 µM | IC50 (NCI-H510A): > 1.28 µM | IC50 (NH-12): > 1.28 µM | IC50 (8-MG-BA): 0.155 µM | IC50 (KU812 cell line): 0.119 µM | IC50 (NKM-1): > 1.28 µM | IC50 697: 0.2 µM | IC50 (P30-OHK): > 1.28 µM | IC50 (SCH): > 1.28 µM | IC50 (GOTO): > 1.28 µM | IC50 (BE-13): > 1.28 µM | IC50 (ES7): > 1.28 µM | IC50 (SH-4): 0.184 µM | IC50 (MS-1): > 1.28 µM | IC50 (LB771-HNC): > 1.28 µM | IC50 (SW684): 0.35 µM | IC50 (K562): < 0.005 µM | IC50 (GCIY): 0.0966 µM | IC50 (U-87 MG): > 1.28 µM | IC50 (MHH-NB-11): > 1.28 µM | IC50 (NCI-H1092): > 1.28 µM | IC50 (TE-5): > 1.28 µM | IC50 (HCE-4): 0.264 µM | IC50 (NCI-H209): > 1.28 µM | IC50 (DJM-1): > 1.28 µM | IC50 (RPMI-8226): > 1.28 µM | IC50 (PSN1): 0.0447 µM | IC50 (SCC-15): > 1.28 µM | IC50 (KP-N-YS): > 1.28 µM | IC50 (NCI-H526): > 1.28 µM | IC50 (JVM-3): > 1.28 µM | IC50 (EW-18): > 1.28 µM | IC50 (TE-1): 0.105 µM | IC50 (SK-MEL-2): > 1.28 µM | IC50 (SW872): 0.0416 µM | IC50 (BV-173): < 0.005 µM | IC50 (KM-H2): > 1.28 µM | IC50 (BB65-RCC): 0.0823 µM | IC50 (D-263MG): 0.362 µM | IC50 (LB831-BLC): 0.0461 µM | IC50 (SW982): 0.0111 µM | IC50 (KLE): 0.113 µM | IC50 (COLO-684): > 1.28 µM | IC50 (SK-NEP-1): > 1.28 µM | IC50 (LS-411N): > 1.28 µM | IC50 (MOLT-16): > 1.28 µM | IC50 (NCI-H1155): > 1.28 µM | IC50 (LXF-289 cell line): 0.0396 µM | IC50 (HAL-01): > 1.28 µM | IC50 (EKVX): > 1.28 µM | IC50 (NCI-H1838): > 1.28 µM | IC50 (HT): > 1.28 µM

C[C@]12O[C@H](C[C@]1(O)CO)n1c3ccccc3c3c4c(c5c6ccccc6n2c5c31)CNC4=O [LESTAURTINIB]
IC50 (IST-MEL1): 0.196 µM | IC50 (KS-1): 0.375 µM | IC50 (ACN): 0.0777 µM | IC50 (NB69): 0.415 µM | IC50 (NCI-H2126): > 2 µM | IC50 (Ramos-2G6-4C10): 0.206 µM | IC50 (KG-1): 0.409 µM | IC50 (NCI-H23): 1.69 µM | IC50 (NOS-1): 0.949 µM | IC50 (MMAC-SF): 0.0721 µM | IC50 (MZ2-MEL): 0.236 µM | IC50 (NB6): 0.936 µM | IC50 (IST-SL1): 0.112 µM | IC50 (COLO-829): 1.16 µM | IC50 (RCC10RGB): > 2 µM | IC50 (NCI-H510A): 0.513 µM | IC50 (NH-12): 0.199 µM | IC50 (8-MG-BA): 0.124 µM | IC50 (KU812 cell line): 1.01 µM | IC50 (NKM-1): 0.0473 µM | IC50 697: 0.0265 µM | IC50 (P30-OHK): 0.128 µM | IC50 (SCH): > 2 µM | IC50 (GOTO): 0.94 µM | IC50 (BE-13): 0.28 µM | IC50 (ES7): 0.0948 µM | IC50 (SH-4): 0.11 µM | IC50 (MS-1): > 2 µM | IC50 (LB771-HNC): > 2 µM | IC50 (SW684): 1.92 µM | IC50 (K562): > 2 µM | IC50 (GCIY): > 2 µM | IC50 (U-87 MG): > 2 µM | IC50 (MHH-NB-11): 1.11 µM | IC50 (NCI-H1092): > 2 µM | IC50 (TE-5): > 2 µM | IC50 (HCE-4): > 2 µM | IC50 (NCI-H209): 0.0367 µM | IC50 (DJM-1): 0.659 µM | IC50 (RPMI-8226): 0.386 µM | IC50 (PSN1): 0.231 µM | IC50 (SCC-15): > 2 µM | IC50 (KP-N-YS): 0.713 µM | IC50 (NCI-H526): > 2 µM | IC50 (JVM-3): 0.0292 µM | IC50 (EW-18): 0.635 µM | IC50 (TE-1): 0.553 µM | IC50 (SK-MEL-2): 0.0266 µM | IC50 (SW872): > 2 µM | IC50 (BV-173): 0.369 µM | IC50 (KM-H2): > 2 µM | IC50 (BB65-RCC): 0.023 µM | IC50 (D-263MG): 0.971 µM | IC50 (LB831-BLC): > 2 µM | IC50 (SW982): 0.0425 µM | IC50 (KLE): > 2 µM | IC50 (COLO-684): 0.853 µM | IC50 (SK-NEP-1): 0.112 µM | IC50 (LS-411N): 0.322 µM | IC50 (MOLT-16): 0.0898 µM | IC50 (NCI-H1155): 0.912 µM | IC50 (LXF-289 cell line): 1.02 µM | IC50 (HAL-01): 0.306 µM | IC50 (EKVX): 0.606 µM | IC50 (NCI-H1838): > 2 µM | IC50 (HT): 1.13 µM

Reference: ChEMBL document CHEMBL1201861, “Genomics of Drug Sensitity in Cancer screening data, Wellcome Trust Sanger Institute”
